Converted amounts (≈) assume the structure as drawn.
Columns and labels:
Format in all cases: functional
Staphylococcus aureus [1] = experiment: Antimicrobial activity against methicillin-resistant Staphylococcus aureus 547 measured after 10 antibiotic-free subculturing by macrodilution method
Staphylococcus aureus [2] = experiment: Antimicrobial activity against methicillin-susceptible Staphylococcus aureus 540 measured on day 30 by macrodilution method
Staphylococcus aureus [3] = experiment: Antimicrobial activity against methicillin-resistant Staphylococcus aureus 525 measured on day 45 by macrodilution method
Staphylococcus aureus [4] = experiment: Antimicrobial activity against vancomycin-intermediate Staphylococcus aureus 555 by macrodilution method
Staphylococcus aureus [5] = experiment: Antimicrobial activity against methicillin-resistant Staphylococcus aureus 525 measured on day 10 by macrodilution method; conditions: Staphylococcus aureus, 525, 240 h
Staphylococcus aureus [6] = experiment: Antimicrobial activity against heterogeneous vancomycin-intermediate Staphylococcus aureus 168 measured on day 30 by macrodilution method
Staphylococcus aureus [7] = experiment: Antimicrobial activity against methicillin-susceptible Staphylococcus aureus 540 measured on day 15 by macrodilution method; conditions: Staphylococcus aureus, 540, 360 h
Staphylococcus aureus [8] = experiment: Antimicrobial activity against vancomycin-intermediate Staphylococcus aureus 1287 measured on day 45 by macrodilution method
Staphylococcus aureus [9] = experiment: Antimicrobial activity against methicillin-susceptible Staphylococcus aureus 540 measured on day 50 by macrodilution method
Staphylococcus aureus [10] = experiment: Antimicrobial activity against methicillin-resistant Staphylococcus aureus 547 measured on day 50 by macrodilution method
Staphylococcus aureus [11] = experiment: Antimicrobial activity against methicillin-resistant Staphylococcus aureus 525 measured after 10 antibiotic-free subculturing by macrodilution method
Staphylococcus aureus [12] = experiment: Antimicrobial activity against methicillin-susceptible Staphylococcus aureus 543 measured on day 30 by macrodilution method
Staphylococcus aureus [13] = experiment: Antimicrobial activity against methicillin-resistant Staphylococcus aureus 547 by macrodilution method
Staphylococcus aureus [14] = experiment: Antimicrobial activity against vancomycin-resistant Staphylococcus aureus 510 measured on day 10 by macrodilution method; conditions: Staphylococcus aureus, 510, 240 h
Staphylococcus aureus [15] = experiment: Antimicrobial activity against vancomycin-resistant Staphylococcus aureus 509 measured on day 40 by macrodilution method
Staphylococcus aureus [16] = experiment: Antimicrobial activity against vancomycin-resistant Staphylococcus aureus 509 measured on day 35 by macrodilution method
Staphylococcus aureus [17] = experiment: Antimicrobial activity against vancomycin-intermediate Staphylococcus aureus 1287 measured on day 30 by macrodilution method
Staphylococcus aureus [18] = experiment: Antimicrobial activity against vancomycin-intermediate Staphylococcus aureus 1287 measured on day 25 by macrodilution method; conditions: Staphylococcus aureus, 1287, 600 h
Staphylococcus aureus [19] = experiment: Antimicrobial activity against methicillin-resistant Staphylococcus aureus 547 measured on day 35 by macrodilution method
Staphylococcus aureus [20] = experiment: Antimicrobial activity against vancomycin-resistant Staphylococcus aureus 510 after 50 passages by macrodilution method
Staphylococcus aureus [21] = experiment: Antimicrobial activity against methicillin-susceptible Staphylococcus aureus 540 measured on day 5 by macrodilution method; conditions: Staphylococcus aureus, 540, 120 h
Staphylococcus aureus [22] = experiment: Antimicrobial activity against vancomycin-intermediate Staphylococcus aureus 1287 by macrodilution method
Staphylococcus aureus [23] = experiment: Antimicrobial activity against heterogeneous vancomycin-intermediate Staphylococcus aureus 873 measured on day 5 by macrodilution method; conditions: Staphylococcus aureus, 873, 120 h
Staphylococcus aureus [24] = experiment: Antimicrobial activity against methicillin-resistant Staphylococcus aureus 525 measured on day 5 by macrodilution method; conditions: Staphylococcus aureus, 525, 120 h
Staphylococcus aureus [25] = experiment: Antimicrobial activity against heterogeneous vancomycin-intermediate Staphylococcus aureus 873 measured on day 35 by macrodilution method
Staphylococcus aureus [26] = experiment: Antimicrobial activity against methicillin-resistant Staphylococcus aureus 525 measured on day 15 by macrodilution method; conditions: Staphylococcus aureus, 525, 360 h
Staphylococcus aureus [27] = experiment: Antimicrobial activity against heterogeneous vancomycin-intermediate Staphylococcus aureus 168 measured on day 35 by macrodilution method
Staphylococcus aureus [28] = experiment: Antimicrobial activity against vancomycin-resistant Staphylococcus aureus 510 measured on day 5 by macrodilution method; conditions: Staphylococcus aureus, 510, 120 h
Staphylococcus aureus [29] = experiment: Antimicrobial activity against vancomycin-intermediate Staphylococcus aureus 555 after 27 passages by macrodilution method
Staphylococcus aureus [30] = experiment: Antimicrobial activity against vancomycin-resistant Staphylococcus aureus 509 measured on day 5 by macrodilution method; conditions: Staphylococcus aureus, 509, 120 h
Staphylococcus aureus [31] = experiment: Antimicrobial activity against heterogeneous vancomycin-intermediate Staphylococcus aureus 873 measured after 10 antibiotic-free subculturing by macrodilution method
Staphylococcus aureus [32] = experiment: Antimicrobial activity against methicillin-susceptible Staphylococcus aureus 543 measured on day 15 by macrodilution method; conditions: Staphylococcus aureus, 543, 360 h
Staphylococcus aureus [33] = experiment: Antimicrobial activity against methicillin-susceptible Staphylococcus aureus 540 measured after 10 antibiotic-free subculturing by macrodilution method
Staphylococcus aureus [34] = experiment: Antimicrobial activity against heterogeneous vancomycin-intermediate Staphylococcus aureus 873 measured on day 30 by macrodilution method
Staphylococcus aureus [35] = experiment: Antimicrobial activity against vancomycin-resistant Staphylococcus aureus 509 measured after 10 antibiotic-free subculturing by macrodilution method
Staphylococcus aureus [36] = experiment: Antimicrobial activity against vancomycin-intermediate Staphylococcus aureus 1287 measured on day 15 by macrodilution method; conditions: Staphylococcus aureus, 1287, 360 h
Staphylococcus aureus [37] = experiment: Antimicrobial activity against methicillin-susceptible Staphylococcus aureus 543 after 50 passages by macrodilution method
Staphylococcus aureus [38] = experiment: Antimicrobial activity against heterogeneous vancomycin-intermediate Staphylococcus aureus 168 measured on day 10 by macrodilution method; conditions: Staphylococcus aureus, 168, 240 h
Staphylococcus aureus [39] = experiment: Antimicrobial activity against methicillin-susceptible Staphylococcus aureus 543 measured on day 10 by macrodilution method; conditions: Staphylococcus aureus, 543, 240 h
Staphylococcus aureus [40] = experiment: Antimicrobial activity against methicillin-resistant Staphylococcus aureus 547 measured on day 45 by macrodilution method
Staphylococcus aureus [41] = experiment: Antimicrobial activity against vancomycin-resistant Staphylococcus aureus 510 measured on day 25 by macrodilution method; conditions: Staphylococcus aureus, 510, 600 h
Staphylococcus aureus [42] = experiment: Antimicrobial activity against methicillin-resistant Staphylococcus aureus 547 measured on day 5 by macrodilution method; conditions: Staphylococcus aureus, 547, 120 h
Staphylococcus aureus [43] = experiment: Antimicrobial activity against heterogeneous vancomycin-intermediate Staphylococcus aureus 168 measured on day 20 by macrodilution method; conditions: Staphylococcus aureus, 168, 480 h
Staphylococcus aureus [44] = experiment: Antimicrobial activity against vancomycin-resistant Staphylococcus aureus 510 measured on day 30 by macrodilution method
Staphylococcus aureus [45] = experiment: Antimicrobial activity against heterogeneous vancomycin-intermediate Staphylococcus aureus 873 measured on day 10 by macrodilution method; conditions: Staphylococcus aureus, 873, 240 h
Staphylococcus aureus [46] = experiment: Antimicrobial activity against methicillin-resistant Staphylococcus aureus 547 measured on day 30 by macrodilution method
Staphylococcus aureus [47] = experiment: Antimicrobial activity against methicillin-susceptible Staphylococcus aureus 540 measured on day 10 by macrodilution method; conditions: Staphylococcus aureus, 540, 240 h
Staphylococcus aureus [48] = experiment: Antimicrobial activity against methicillin-resistant Staphylococcus aureus 525 measured on day 25 by macrodilution method; conditions: Staphylococcus aureus, 525, 600 h
Staphylococcus aureus [49] = experiment: Antimicrobial activity against vancomycin-intermediate Staphylococcus aureus 1287 measured on day 10 by macrodilution method; conditions: Staphylococcus aureus, 1287, 240 h
Staphylococcus aureus [50] = experiment: Antimicrobial activity against heterogeneous vancomycin-intermediate Staphylococcus aureus 168 measured on day 50 by macrodilution method

Work on `C[C@H]1C=C(c2csc(SC3=C(C(=O)O)N4C(=O)[C@H]([C@@H](C)O)[C@H]4[C@H]3C)n2)CN1` [RAZUPENEM] yielded an MIC (Staphylococcus aureus [1]) of 0.125 µg/mL (≈ 0.307 µM), an MIC (Staphylococcus aureus [2]) of 4 µg/mL (≈ 9.82 µM) and an MIC (Staphylococcus aureus [3]) of 32 µg/mL (≈ 78.5 µM). The MIC (Staphylococcus aureus [4]) was 0.5 µg/mL (≈ 1.23 µM), the MIC (Staphylococcus aureus [5]) was 4 µg/mL (≈ 9.82 µM) and the MIC (Staphylococcus aureus [6]) was 8 µg/mL (≈ 19.6 µM). It also gave an MIC (Staphylococcus aureus [7]) of 0.03 µg/mL (≈ 0.0736 µM), an MIC (Staphylococcus aureus [8]) of 2 µg/mL (≈ 4.91 µM) and an MIC (Staphylococcus aureus [9]) of 0.125 µg/mL (≈ 0.307 µM). For the same compound, the MIC (Staphylococcus aureus [10]) was 16 µg/mL (≈ 39.3 µM), the MIC (Staphylococcus aureus [11]) was 8 µg/mL (≈ 19.6 µM) and the MIC (Staphylococcus aureus [12]) was 8 µg/mL (≈ 19.6 µM). The MIC (Staphylococcus aureus [13]) was 0.5 µg/mL (≈ 1.23 µM), the MIC (Staphylococcus aureus [14]) was 2 µg/mL (≈ 4.91 µM) and the MIC (Staphylococcus aureus [15]) was 4 µg/mL (≈ 9.82 µM). The MIC (Staphylococcus aureus [16]) was 4 µg/mL (≈ 9.82 µM), the MIC (Staphylococcus aureus [17]) was 16 µg/mL (≈ 39.3 µM) and the MIC (Staphylococcus aureus [18]) was 0.5 µg/mL (≈ 1.23 µM). It also gave an MIC (Staphylococcus aureus [19]) of 16 µg/mL (≈ 39.3 µM), an MIC (Staphylococcus aureus [20]) of 4 µg/mL (≈ 9.82 µM) and an MIC (Staphylococcus aureus [21]) of 0.016 µg/mL (≈ 0.0393 µM). The MIC (Staphylococcus aureus [22]) was 0.06 µg/mL (≈ 0.147 µM), the MIC (Staphylococcus aureus [23]) was 2 µg/mL (≈ 4.91 µM) and the MIC (Staphylococcus aureus [24]) was 2 µg/mL (≈ 4.91 µM). The MIC (Staphylococcus aureus [25]) was 16 µg/mL (≈ 39.3 µM), the MIC (Staphylococcus aureus [26]) was 4 µg/mL (≈ 9.82 µM) and the MIC (Staphylococcus aureus [27]) was 8 µg/mL (≈ 19.6 µM). It also gave an MIC (Staphylococcus aureus [28]) of 2 µg/mL (≈ 4.91 µM), an MIC (Staphylococcus aureus [29]) of 4 µg/mL (≈ 9.82 µM) and an MIC (Staphylococcus aureus [30]) of 2 µg/mL (≈ 4.91 µM). It also gave an MIC (Staphylococcus aureus [31]) of 8 µg/mL (≈ 19.6 µM), an MIC (Staphylococcus aureus [32]) of 0.03 µg/mL (≈ 0.0736 µM) and an MIC (Staphylococcus aureus [33]) of 0.016 µg/mL (≈ 0.0393 µM). The MIC (Staphylococcus aureus [34]) was 8 µg/mL (≈ 19.6 µM), the MIC (Staphylococcus aureus [35]) was 1 µg/mL (≈ 2.45 µM) and the MIC (Staphylococcus aureus [36]) was 0.25 µg/mL (≈ 0.613 µM). It also gave an MIC (Staphylococcus aureus [37]) of 0.06 µg/mL (≈ 0.147 µM), an MIC (Staphylococcus aureus [38]) of 4 µg/mL (≈ 9.82 µM) and an MIC (Staphylococcus aureus [39]) of 0.03 µg/mL (≈ 0.0736 µM). It also gave an MIC (Staphylococcus aureus [40]) of 16 µg/mL (≈ 39.3 µM), an MIC (Staphylococcus aureus [41]) of 4 µg/mL (≈ 9.82 µM) and an MIC (Staphylococcus aureus [42]) of 0.5 µg/mL (≈ 1.23 µM). For the same compound, the MIC (Staphylococcus aureus [43]) was 8 µg/mL (≈ 19.6 µM), the MIC (Staphylococcus aureus [44]) was 4 µg/mL (≈ 9.82 µM) and the MIC (Staphylococcus aureus [45]) was 2 µg/mL (≈ 4.91 µM). It also gave an MIC (Staphylococcus aureus [46]) of 2 µg/mL (≈ 4.91 µM), an MIC (Staphylococcus aureus [47]) of 0.016 µg/mL (≈ 0.0393 µM) and an MIC (Staphylococcus aureus [48]) of 4 µg/mL (≈ 9.82 µM). The MIC (Staphylococcus aureus [49]) was 0.25 µg/mL (≈ 0.613 µM) and the MIC (Staphylococcus aureus [50]) was 8 µg/mL (≈ 19.6 µM).
